From patent US20220315554A1, “COMPOUNDS COMPRISING A […] LIGAND AND USE THEREOF” (priority 2019, published 2022) come the findings set out here.

Some results are limits rather than exact numbers.

Assay [1] deals with T1, Human recombinant FAP (Homo sapiens, UniProt Q12884).
T1 sequence (Q12884 1-760): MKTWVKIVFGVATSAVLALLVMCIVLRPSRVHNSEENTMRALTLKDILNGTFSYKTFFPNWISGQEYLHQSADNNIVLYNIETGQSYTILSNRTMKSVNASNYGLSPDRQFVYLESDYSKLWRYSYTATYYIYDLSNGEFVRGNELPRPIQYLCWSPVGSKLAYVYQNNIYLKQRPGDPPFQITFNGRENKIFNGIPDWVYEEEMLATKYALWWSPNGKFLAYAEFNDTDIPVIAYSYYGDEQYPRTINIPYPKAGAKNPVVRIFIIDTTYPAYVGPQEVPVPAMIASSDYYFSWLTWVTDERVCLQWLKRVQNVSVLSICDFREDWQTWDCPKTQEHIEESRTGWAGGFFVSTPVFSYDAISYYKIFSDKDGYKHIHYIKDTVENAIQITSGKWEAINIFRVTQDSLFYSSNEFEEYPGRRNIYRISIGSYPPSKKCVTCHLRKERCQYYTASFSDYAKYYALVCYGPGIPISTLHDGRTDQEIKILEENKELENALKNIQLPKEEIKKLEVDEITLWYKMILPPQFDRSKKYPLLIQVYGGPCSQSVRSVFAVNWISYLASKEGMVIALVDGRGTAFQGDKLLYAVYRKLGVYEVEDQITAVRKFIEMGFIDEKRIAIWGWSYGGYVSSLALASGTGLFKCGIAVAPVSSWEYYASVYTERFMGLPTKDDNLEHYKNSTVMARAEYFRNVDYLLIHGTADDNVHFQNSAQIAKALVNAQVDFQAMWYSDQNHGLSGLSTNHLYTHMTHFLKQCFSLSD
Kind of assay: FRET-based FAP protease activity assay. The class given is biochemical. Also on record: purchased R&D systems 3715-SE. As to conditions: pIC50 Category (Activity), FRET substrate, 37° C.

Assay [2] concerns the target T2, FAP-expressing human WI-38 fibroblasts (Homo sapiens, UniProt Q12884).
T2 construct: FAP-expressing human WI-38 fibroblasts (ECACC) were cultured in EMEM; host or cells: WI-38 human fibroblasts
T2 sequence (Q12884 1-760): T1 sequence (Q12884 1-760)
Kind of assay: Competitive FACS binding assay. As to conditions: pIC50 Category (FACS), competition with 3 nM Cy5-labeled compound, 4° C., 1 hour. The procedure: Cells were analyzed in an Attune NxT flow cytometer. […]
A general note: In flow cytometry, cells or beads pass a laser one at a time.

As for `CCCCCC(=O)N[C@H]1CSCc2cc(CSCCNC(=O)CCC(=O)NCCCOCCOCCOCCCNC(=O)C(CNCCN)CNCCN)cc(c2)CSC[C@@H](C(=O)O)NC(=O)[C@H](Cc2ccccc2)NC(=O)[C@H](CCC(N)=O)NC(=O)[C@H]([C@@H](C)O)NC(=O)[C@@H]2CCCN2C(=O)[C@@H]2CCCN2C1=O` [3BP-4299, Hex-[Cys-(tMeBn(N4Ac-Ttds-AET))-Pro-Pro-Thr-Gln-Phe-Cys]-OH], the IC50 in assay [1] and in assay [2] was less than 0.01 µM each time.

As to `CCCCCC(=O)N[C@H]1CSCc2cc(CSCCNC(=O)CCOCCOCCOCCOCCOCCOCCNC(=O)C(CNCCN)CNCCN)cc(c2)CSC[C@@H](C(=O)O)NC(=O)[C@H](Cc2ccccc2)NC(=O)[C@H](CCC(N)=O)NC(=O)[C@H]([C@@H](C)O)NC(=O)[C@@H]2CCCN2C(=O)[C@@H]2CCCN2C1=O` [3BP-4300, Hex-[Cys-(tMeBn(N4Ac-PEG6-AET))-Pro-Pro-Thr-Gln-Phe-Cys]-OH], the IC50 (usually the point on the concentration scale where inhibition reaches its midpoint) in assay [1] was less than 0.01 µM; in assay [2], 0.01 to 0.0794 µM.

Turning to `CCCCCC(=O)N[C@H]1CSCc2cc(CSCCNC(=O)[C@H](CO)NC(=O)[C@H](CO)NC(=O)[C@H](CO)NC(=O)CS)cc(c2)CSC[C@@H](C(=O)O)NC(=O)[C@H](Cc2ccccc2)NC(=O)[C@H](CCC(N)=O)NC(=O)[C@H]([C@@H](C)O)NC(=O)[C@@H]2CCCN2C(=O)[C@@H]2CCCN2C1=O` [3BP-4301, Hex-[Cys-(tMeBn(H-SAc-Ser-Ser-Ser-AET))-Pro-Pro-Thr-Gln-Phe-Cys]-OH], the IC50 in assay [1] and in assay [2] was 0.01 to 0.0794 µM in each case.

As to `CCCCCC(=O)N[C@H]1CSCc2cc(CSCCNC(=O)CCC(=O)NCCCOCCOCCOCCCNC(=O)[C@H](CS)NC(=O)[C@H](CC(=O)O)NC(=O)[C@@H](N)CC(=O)O)cc(c2)CSC[C@@H](C(=O)O)NC(=O)[C@H](Cc2ccccc2)NC(=O)[C@H](CCC(N)=O)NC(=O)[C@H]([C@@H](C)O)NC(=O)[C@@H]2CCCN2C(=O)[C@@H]2CCCN2C1=O` [3BP-4302, Hex-[Cys-(tMeBn(H-Asp-Asp-Cys-Ttds-AET))-Pro-Pro-Thr-Gln-Phe-Cys]-OH], the figures for the IC50 in assay [1] and in assay [2] were 0.01 to 0.0794 µM and 0.1 to 0.794 µM, respectively.

With `CCCCCC(=O)N[C@H]1CSCc2cc(CSCCNC(=O)[C@H](CS)NC(=O)[C@H](CC(=O)O)NC(=O)[C@@H](N)CC(=O)O)cc(c2)CSC[C@@H](C(=O)O)NC(=O)[C@H](Cc2ccccc2)NC(=O)[C@H](CCC(N)=O)NC(=O)[C@H]([C@@H](C)O)NC(=O)[C@@H]2CCCN2C(=O)[C@@H]2CCCN2C1=O` [3BP-4303, Hex-[Cys-(tMeBn(H-Asp-Asp-Cys-AET))-Pro-Pro-Thr-Gln-Phe-Cys]-OH], the IC50 in assay [1] was in the range of 0.01 to 0.0794 µM; in assay [2] it was 0.1 to 0.794 µM.

For the compound `CCCCCC(=O)N[C@H]1CSCc2cc(CSCCNC(=O)CCOCCOCCOCCOCCOCCOCCNC(=O)[C@H](CO)NC(=O)[C@H](CO)NC(=O)[C@H](CO)NC(=O)CS)cc(c2)CSC[C@@H](C(=O)O)NC(=O)[C@H](Cc2ccccc2)NC(=O)[C@H](CCC(N)=O)NC(=O)[C@H]([C@@H](C)O)NC(=O)[C@@H]2CCCN2C(=O)[C@@H]2CCCN2C1=O` [3BP-4308, Hex-[Cys-(tMeBn(H-SAc-Ser-Ser-Ser-Ttds-AET))-Pro-Pro-Thr-Gln-Phe-Cys]-OH], the IC50 in assay [1] and in assay [2] was 0.01 to 0.0794 µM in each case.

With `CCCCCC(=O)N[C@H]1CSCc2cc(CSCCNC(=O)CN(CCN(CCN(CC(=O)O)CC(=O)O)CC(=O)O)CC(=O)O)cc(c2)CSC[C@@H](C(=O)O)NC(=O)[C@H](Cc2ccccc2)NC(=O)[C@H](CCC(N)=O)NC(=O)[C@H]([C@@H](C)O)NC(=O)[C@@H]2CCCN2C(=O)[C@@H]2CCCN2C1=O` [3BP-4309, Hex-[Cys-(tMeBn(DTPA2-AET))-Pro-Pro-Thr-Gln-Phe-Cys]-OH], the IC50 in assay [1] and in assay [2] was 0.01 to 0.0794 µM each time.

On to `CCCCCC(=O)N[C@H]1CSCc2cc(CSCCNC(=O)CN3CCN(CC(=O)O)CCN(CC(=O)O)CC3)cc(c2)CSC[C@@H](C(=O)O)NC(=O)[C@H](Cc2ccccc2)NC(=O)[C@H](CCC(N)=O)NC(=O)[C@H]([C@@H](C)O)NC(=O)[C@@H]2CCCN2C(=O)[C@@H]2CCCN2C1=O` [3BP-4310, Hex-[Cys-(tMeBn(NOTA-AET))-Pro-Pro-Thr-Gln-Phe-Cys]-OH], for which the IC50 in assay [1] and in assay [2] was less than 0.01 µM each time.

Take `CCCCCC(=O)N[C@H]1CSCc2cc(CSCCNC(=O)c3ccc(NN)nc3)cc(c2)CSC[C@@H](C(=O)O)NC(=O)[C@H](Cc2ccccc2)NC(=O)[C@H](CCC(N)=O)NC(=O)[C@H]([C@@H](C)O)NC(=O)[C@@H]2CCCN2C(=O)[C@@H]2CCCN2C1=O` [3BP-4342, Hex-[Cys-(tMeBn(H-HYNIC-AET))-Pro-Pro-Thr-Gln-Phe-Cys]-OH]: the IC50 was less than 0.01 µM in assay [1] and 0.01 to 0.0794 µM in assay [2].

For `CCCCCC(=O)N[C@H]1CSCc2cc(CSCCNC(=O)CN3CCN4CCN(CC(=O)O)CCN(CC3)CC(=O)[O][Zn][O]C(=O)C4)cc(c2)CSC[C@@H](C(=O)O)NC(=O)[C@H](Cc2ccccc2)NC(=O)[C@H](CCC(N)=O)NC(=O)[C@H]([C@@H](C)O)NC(=O)[C@@H]2CCCN2C(=O)[C@@H]2CCCN2C1` [3BP-4343, Zink-Complex of Hex-[Cys(tMeBn(DOTA-AET))-Pro-Pro-Thr-Gln-Phe-Cys]-OH], the IC50 in assay [1] and in assay [2] was less than 0.01 µM in each case.

Turning to `CCCCCC(=O)N[C@H]1CSCc2cc(CSCCNC(=O)CCC(=O)NCCCOCCOCCOCCCNC(=O)CN3CCN(CC(=O)O)CCN(CC(=O)O)CC3)cc(c2)CSC[C@@H](C(=O)O)NC(=O)[C@H](Cc2ccccc2)NC(=O)[C@H](CCC(N)=O)NC(=O)[C@H]([C@@H](C)O)NC(=O)[C@@H]2CCCN2C(=O)[C@@H]2CCCN2C1=O` [3BP-4344, Hex-[Cys-(tMeBn(NOTA-Ttds-AET))-Pro-Pro-Thr-Gln-Phe-Cys]-OH], the IC50 in assay [1] and in assay [2] was less than 0.01 µM throughout.

As for `CCCCCC(=O)N[C@H]1CSCc2cc(CSCCNC(=O)CCC(=O)NCCCOCCOCCOCCCNC(=O)CN(CCN(CCN(CC(=O)O)CC(=O)O)CC(=O)O)CC(=O)O)cc(c2)CSC[C@@H](C(=O)O)NC(=O)[C@H](Cc2ccccc2)NC(=O)[C@H](CCC(N)=O)NC(=O)[C@H]([C@@H](C)O)NC(=O)[C@@H]2CCCN2C(=O)[C@@H]2CCCN2C1=O` [3BP-4352, Hex-[Cys-(tMeBn(DTPA2-Ttds-AET))-Pro-Pro-Thr-Gln-Phe-Cys]-OH], the values for the IC50 in assay [1] and in assay [2] were 0.01 to 0.0794 µM and 0.1 to 0.794 µM, respectively.

As for `CCCCCC(=O)N[C@H]1CSCc2cc(CSCCNC(=O)CCOCCOCCOCCOCCOCCOCCNC(=O)CN(CCN(CCN(CC(=O)O)CC(=O)O)CC(=O)O)CC(=O)O)cc(c2)CSC[C@@H](C(=O)O)NC(=O)[C@H](Cc2ccccc2)NC(=O)[C@H](CCC(N)=O)NC(=O)[C@H]([C@@H](C)O)NC(=O)[C@@H]2CCCN2C(=O)[C@@H]2CCCN2C1=O` [3BP-4353, Hex-[Cys-(tMeBn(DTPA2-PEG6-AET))-Pro-Pro-Thr-Gln-Phe-Cys]-OH], the IC50 in assay [1] and in assay [2] was 0.01 to 0.0794 µM in each case.

`CCCCCC(=O)N[C@H]1CSCc2cc(CSCCNC(=O)CCCC(=O)Nc3ccc(C[C@H](CN(CCN(CC(=O)O)CC(=O)O)CC(=O)O)N(CC(=O)O)CC(=O)O)cc3)cc(c2)CSC[C@@H](C(=O)O)NC(=O)[C@H](Cc2ccccc2)NC(=O)[C@H](CCC(N)=O)NC(=O)[C@H]([C@@H](C)O)NC(=O)[C@@H]2CCCN2C(=O)[C@@H]2CCCN2C1=O` [3BP-4366, Hex-[Cys-(tMeBn(DTPABzl-Glutar-AET))-Pro-Pro-Thr-Gln-Phe-Cys]-OH]: the IC50 in assay [1] and in assay [2] was 0.1 to 0.794 µM each time.

As for `CCCCCC(=O)N[C@H]1CSCc2cc(CSCCNC(=O)CN3CCN4CCN5CCN(CC3)CC(=O)[O][Lu]([O]C(=O)C4)[O]C(=O)C5)cc(c2)CSC[C@@H](C(=O)N[C@@H](CC(=O)O)C(=O)NCCCC(=O)NC(CCCNC(=N)N)C(=O)NCCCOCCOCCOCCCNC(=O)CCC(=O)NC(CCCCNC(=O)c2ccc(-c3c4ccc(=N)c(S(=O)(=O)O)c-4oc4c(S(=O)(=O)O)c(N)ccc34)c(C(=O)O)c2)C(N)=O)NC[C@H](Cc2ccccc2)NC(=O)[C@H](CCC(N)=O)NC(=O)C([C@@H](C)O)NC(=O)[C@@H]2CCCN2C(=O)[C@@H]2CCCC2C1=O` (stereo partly drawn) [3BP-4372, Hex-[Cys(tMeBn(LuDOTA-AET))-Pro-Pro-Thr-Gln-Phe-Cys]-Asp-Gab-Arg-Ttds-Lys(AF488)-NH2], the IC50 in assay [1] and in assay [2] was less than 0.01 µM throughout.
